Laboratory results reported in patent US12077503B2, “Substituted cyclic amides and their use as herbicides” (FMC CORPORATION, priority 2015, dated 2024).

Experiments:
Type in all cases: in vivo
[1] = tested on: giant foxtail (Setaria faberi); assay: Test G Post-Emergence Protocol; details: Setaria faberi, post-emergence, 312 h; for pest or weed control at 15.625 g/ha: 15.625 g ai/ha, evaluated after 13 days (100=total damage to plant; 0=no damage to plant), read-out: Foxtail, Giant damage rating; for pest or weed control at 62.5 g/ha: 62.5 g ai/ha, read-out: Foxtail, Giant damage rating (100=total damage to plant; 0=no damage to plant); for pest or weed control at 62.5 g/ha / pest or weed control at 250 g/ha: evaluated after 13 days; for pest or weed control at 250 g/ha: 250 g ai/ha, read-out: damage to plant, Foxtail, Giant (100=total damage to plant; 0=no damage to plant)
How it was run: (§1)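 Scores run 0 (no damage) to 100 (total damage) and were taken 13 days after spraying. Plants had been raised in pots for 8 days under glasshouse control (24/16 °C, 14 h photoperiod, 65% humidity) and then treated at 15.625, 62.5 or 250 g/ha.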

[2] = tested on: redroot pigweed (Amaranthus retroflexus); assay: Test G Post-Emergence Protocol; details: Amaranthus retroflexus, post-emergence, 312 h; for pest or weed control at 15.625 g/ha: 15.625 g ai/ha, evaluated after 13 days (100=total damage to plant; 0=no damage to plant), read-out: Pigweed, Redroot damage rating; for pest or weed control at 62.5 g/ha: 62.5 g ai/ha, read-out: Pigweed, Redroot damage rating (100=total damage to plant; 0=no damage to plant); for pest or weed control at 62.5 g/ha / pest or weed control at 250 g/ha: evaluated after 13 days; for pest or weed control at 250 g/ha: 250 g ai/ha, read-out: damage to plant, Pigweed, Redroot (100=total damage to plant; 0=no damage to plant)
How it was run: as §1

[3] = tested on: ivy-leaved morning glory (Ipomoea hederacea); assay: Test G Post-Emergence Protocol; details: Ipomoea, post-emergence, 312 h; for pest or weed control at 15.625 g/ha: 15.625 g ai/ha, evaluated after 13 days (100=total damage to plant; 0=no damage to plant), read-out: Morningglory, Ivy-leaved damage rating; for pest or weed control at 62.5 g/ha: 62.5 g ai/ha, read-out: Morningglory, Ivy-leaved damage rating (100=total damage to plant; 0=no damage to plant); for pest or weed control at 62.5 g/ha / pest or weed control at 250 g/ha: evaluated after 13 days; for pest or weed control at 250 g/ha: 250 g ai/ha, read-out: damage to plant, Morningglory, Ivy-leaved (100=total damage to plant; 0=no damage to plant)
How it was run: as §1

corn (Zea mays) [4] = assay: Test G Post-Emergence Protocol; details: Zea mays, post-emergence, 312 h; for plant injury at 15.625 g/ha: 15.625 g ai/ha, evaluated after 13 days (100=total damage to plant; 0=no damage to plant), read-out: Corn damage rating; for plant injury at 62.5 g/ha: 62.5 g ai/ha, read-out: Corn damage rating (100=total damage to plant; 0=no damage to plant); for plant injury at 62.5 g/ha / plant injury at 250 g/ha: evaluated after 13 days; for plant injury at 250 g/ha: 250 g ai/ha, read-out: damage to plant, Corn (100=total damage to plant; 0=no damage to plant)
How it was run: as §1

[5] = tested on: barnyardgrass (Echinochloa crus-galli); assay: Test G Post-Emergence Protocol; details: Echinochloa crus-galli, post-emergence, 312 h; for pest or weed control at 15.625 g/ha: 15.625 g ai/ha, evaluated after 13 days (100=total damage to plant; 0=no damage to plant), read-out: Barnyardgrass damage rating; for pest or weed control at 62.5 g/ha: 62.5 g ai/ha, read-out: Barnyardgrass damage rating (100=total damage to plant; 0=no damage to plant); for pest or weed control at 62.5 g/ha / pest or weed control at 250 g/ha: evaluated after 13 days; for pest or weed control at 250 g/ha: 250 g ai/ha, read-out: damage to plant, Barnyardgrass (100=total damage to plant; 0=no damage to plant)
How it was run: as §1

[6] = tested on: velvetleaf (Abutilon theophrasti); assay: Test G Post-Emergence Protocol; details: Abutilon theophrasti, post-emergence, 312 h; for pest or weed control at 15.625 g/ha: 15.625 g ai/ha, evaluated after 13 days (100=total damage to plant; 0=no damage to plant), read-out: Velvetleaf damage rating; for pest or weed control at 62.5 g/ha: 62.5 g ai/ha, read-out: Velvetleaf damage rating (100=total damage to plant; 0=no damage to plant); for pest or weed control at 62.5 g/ha / pest or weed control at 250 g/ha: evaluated after 13 days; for pest or weed control at 250 g/ha: 250 g ai/ha, read-out: damage to plant, Velvetleaf (100=total damage to plant; 0=no damage to plant)
How it was run: as §1

[7] = tested on: giant foxtail (Setaria faberi); assay: Test G Pre-Emergence Protocol; details: Setaria faberi, pre-emergence, 312 h, evaluated after 13 days; for pest or weed control at 15.625 g/ha: 15.625 g ai/ha; for pest or weed control at 15.625 g/ha / pest or weed control at 250 g/ha: read-out: Foxtail, Giant damage rating (100=total damage to plant; 0=no damage to plant); for pest or weed control at 62.5 g/ha: 62.5 g ai/ha, 100=total damage to plant, 0=no damage to plant, read-out: plant damage rating, Foxtail, Giant; for pest or weed control at 250 g/ha: 250 g ai/ha
How it was run: (§2)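 Test compound in 0.5% Tween 20 acetone/water (50:50) was applied at three rates (15.625, 62.5, 250 g/ha) to soil sown one day earlier. After 13 days plants were scored for injury, where 0 means unaffected and 100 means completely damaged.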

[8] = tested on: redroot pigweed (Amaranthus retroflexus); assay: Test G Pre-Emergence Protocol; details: Amaranthus retroflexus, pre-emergence, 312 h, evaluated after 13 days; for pest or weed control at 15.625 g/ha: 15.625 g ai/ha; for pest or weed control at 15.625 g/ha / pest or weed control at 250 g/ha: read-out: Pigweed, Redroot damage rating (100=total damage to plant; 0=no damage to plant); for pest or weed control at 62.5 g/ha: 62.5 g ai/ha, 100=total damage to plant, 0=no damage to plant, read-out: plant damage rating, Pigweed, Redroot; for pest or weed control at 250 g/ha: 250 g ai/ha
How it was run: as §2

[9] = tested on: ivy-leaved morning glory (Ipomoea hederacea); assay: Test G Pre-Emergence Protocol; details: Ipomoea, pre-emergence, 312 h, evaluated after 13 days; for pest or weed control at 15.625 g/ha: 15.625 g ai/ha, read-out: Morning-glory, Ivy-leaved damage rating (100=total damage to plant; 0=no damage to plant); for pest or weed control at 62.5 g/ha: 62.5 g ai/ha, 100=total damage to plant, 0=no damage to plant, read-out: plant damage rating, Morningglory, Ivy-leaved; for pest or weed control at 250 g/ha: 250 g ai/ha, read-out: Morningglory, Ivy-leaved damage rating (100=total damage to plant; 0=no damage to plant)
How it was run: as §2

corn (Zea mays) [10] = assay: Test G Pre-Emergence Protocol; details: Zea mays, pre-emergence, 312 h, evaluated after 13 days; for plant injury at 15.625 g/ha: 15.625 g ai/ha; for plant injury at 15.625 g/ha / plant injury at 250 g/ha: read-out: Corn damage rating (100=total damage to plant; 0=no damage to plant); for plant injury at 62.5 g/ha: 62.5 g ai/ha, 100=total damage to plant, 0=no damage to plant, read-out: plant damage rating, Corn; for plant injury at 250 g/ha: 250 g ai/ha
How it was run: as §2

[11] = tested on: barnyardgrass (Echinochloa crus-galli); assay: Test G Pre-Emergence Protocol; details: Echinochloa crus-galli, pre-emergence, 312 h, evaluated after 13 days; for pest or weed control at 15.625 g/ha: 15.625 g ai/ha, read-out: Barnyard grass damage rating (100=total damage to plant; 0=no damage to plant); for pest or weed control at 62.5 g/ha: 62.5 g ai/ha, 100=total damage to plant, 0=no damage to plant, read-out: plant damage rating, Barnyardgrass; for pest or weed control at 250 g/ha: 250 g ai/ha, read-out: Barnyardgrass damage rating (100=total damage to plant; 0=no damage to plant)
How it was run: as §2

[12] = tested on: velvetleaf (Abutilon theophrasti); assay: Test G Pre-Emergence Protocol; details: Abutilon theophrasti, pre-emergence, 312 h, evaluated after 13 days; for pest or weed control at 15.625 g/ha: 15.625 g ai/ha; for pest or weed control at 15.625 g/ha / pest or weed control at 250 g/ha: read-out: Velvetleaf damage rating (100=total damage to plant; 0=no damage to plant); for pest or weed control at 62.5 g/ha: 62.5 g ai/ha, 100=total damage to plant, 0=no damage to plant, read-out: plant damage rating, Velvetleaf; for pest or weed control at 250 g/ha: 250 g ai/ha
How it was run: as §2

SMILES	pest or weed control at 15.625 g/ha [1] [%]	pest or weed control at 62.5 g/ha [1] [%]	pest or weed control at 250 g/ha [1] [%]	pest or weed control at 15.625 g/ha [2] [%]	pest or weed control at 62.5 g/ha [2] [%]	pest or weed control at 250 g/ha [2] [%]	pest or weed control at 15.625 g/ha [3] [%]	pest or weed control at 62.5 g/ha [3] [%]	pest or weed control at 250 g/ha [3] [%]	plant injury at 15.625 g/ha (corn (Zea mays) [4]) [%]	plant injury at 62.5 g/ha (corn (Zea mays) [4]) [%]	plant injury at 250 g/ha (corn (Zea mays) [4]) [%]	pest or weed control at 15.625 g/ha [5] [%]	pest or weed control at 62.5 g/ha [5] [%]	pest or weed control at 250 g/ha [5] [%]	pest or weed control at 15.625 g/ha [6] [%]	pest or weed control at 62.5 g/ha [6] [%]	pest or weed control at 250 g/ha [6] [%]	pest or weed control at 15.625 g/ha [7] [%]	pest or weed control at 62.5 g/ha [7] [%]	other results
Cc1cc(NC(=O)[C@@H]2C(=O)N(C)C[C@H]2c2ccc(C(F)(F)F)cc2)no1 (racemic) [Compound 1556]	0	0	0	0	0	0	0	0	0	0	0	0	0	0	20	0	0	0	0	0	pest or weed control at 250 g/ha [7]: 0%; pest or weed control at 15.625 g/ha [8]: 0%; pest or weed control at 62.5 g/ha [8]: 0%; pest or weed control at 250 g/ha [8]: 20%; pest or weed control at 15.625 g/ha [9]: 0%; pest or weed control at 62.5 g/ha [9]: 0%; pest or weed control at 250 g/ha [9]: 0%; plant injury at 15.625 g/ha (corn (Zea mays) [10]): 0%; plant injury at 62.5 g/ha (corn (Zea mays) [10]): 0%; plant injury at 250 g/ha (corn (Zea mays) [10]): 0%; pest or weed control at 15.625 g/ha [11]: 0%; pest or weed control at 62.5 g/ha [11]: 0%; pest or weed control at 250 g/ha [11]: 0%; pest or weed control at 15.625 g/ha [12]: 0%; pest or weed control at 62.5 g/ha [12]: 0%; pest or weed control at 250 g/ha [12]: 0%
Cc1ccnc(NC(=O)[C@@H]2C(=O)N(C)C[C@H]2c2ccc(C(F)(F)F)cc2)n1 (racemic) [Compound 1557]	0	0	10	0	0	0	0	0	0	0	0	20	0	20	20	0	0	10	0	0	pest or weed control at 250 g/ha [7]: 20%; pest or weed control at 15.625 g/ha [8]: 0%; pest or weed control at 62.5 g/ha [8]: 0%; pest or weed control at 250 g/ha [8]: 0%; pest or weed control at 15.625 g/ha [9]: 0%; pest or weed control at 62.5 g/ha [9]: 0%; pest or weed control at 250 g/ha [9]: 0%; plant injury at 15.625 g/ha (corn (Zea mays) [10]): 0%; plant injury at 62.5 g/ha (corn (Zea mays) [10]): 0%; plant injury at 250 g/ha (corn (Zea mays) [10]): 10%; pest or weed control at 15.625 g/ha [11]: 0%; pest or weed control at 62.5 g/ha [11]: 0%; pest or weed control at 250 g/ha [11]: 10%; pest or weed control at 15.625 g/ha [12]: 0%; pest or weed control at 62.5 g/ha [12]: 0%; pest or weed control at 250 g/ha [12]: 0%
